Source: patent US20250339391A1, “METHODS FOR EFFECTIVE MANAGEMENT OF PAIN” (South Rampart Pharma, Inc., priority 2024, published 2025)
“Also recorded” adds a separate entry of the source. Read-outs that look alike come from different tables or passages of the source.

Legend:
[1] = system: CD1 (young male and female) or C57BL/6 (aged male) mice; assay: Acetic acid-induced abdominal writhing visceral pain assay; assay type: in vivo, mouse; conditions: for analgesia in acetic acid-induced writhing assay: 100 mg/kg, all cohorts; for antinociception in acetic acid writhing: 32 and 100 mg/kg PO, 0.4% acetic acid ip
Protocol: In this model of visceral pain, abdominal contraction (writhing) in which contraction of the abdominal muscles and stretching of the hind limbs is induced in mice in response to an ip injection of 0.4% acetic acid at a dose of 10 mL/kg 25 min after drug administration is assessed. Specifically, the number of writhes is counted for 10 min beginning 5 min after acetic acid injection. […] CD1 (young male and female) or C57BL/6 (aged male) mice were used. For the abdominal writhing assays, we used n=35 aged male mice, n=70 young male mice, and n=70 young female mice.

CD-1 male mice [2] = assay: LPS fever induction antipyresis assay; assay type: in vivo, mouse; conditions: LPS 100 μg/kg ip, drug 75 mg/kg po, 2 h post drug
Protocol: Antipyresis experiments were carried out with n=60 CD-1 male mice weighing between 45-50 g. All mice were kept in a 12-h day/12-h night cycle with free access to food and water ad libitum. After habituating and acclimating the mice for a week, each mouse was briefly anesthetized for 1 min with 1% isoflurane and implanted subcutaneously a transmitter probe that records core body temperature—Implantable Programmable Temperature Transponder (IPTT-300) by Bio Medic Data Systems (BMDS), DE, USA. The mice were allowed to recover for at least one week from the surgery before any recordings were made and observed in their home cages prior to pyrogen challenge for inducing fever. Temperatures were recorded using the BMDS DAS-8027-IUS data reading system.
All mice were fasted overnight (15 h) with free access to water ad libitum prior to the pyrogen challenge. For the induction of fever, LPS from E. coli (100 μg/kg, 0111:B4) (MilliporeSigma, Billerica, MA, USA) was used. Mice received either LPS in 0.9% saline (sterile) (vehicle) or just 0.9% saline as an intraperitoneal (ip) injection.
Drug injection/concentration: All drugs and vehicle (10% DMSO: 10% labrasol:80% PEG400) were administered by oral gavage, PO dosing. Each dosing volume was ˜0.3-0.4 mL per mouse. […] We chose this dose to record antipyretic effect in a low dose that doesn't cause hypothermia in mice.

Sprague-Dawley rats = assay: CFA-induced inflammatory pain / Hargreaves thermal sensitivity assay; assay type: in vivo, rat; conditions: for analgesia, paw withdrawal latencies: 100 mg/kg
Description: In these same cohorts of animals, we simultaneously measured their thermal nociception to hyperalgesia with the Hargreaves test using the plantar test apparatus (Ugo Basile 37570). In this experimental setup, the rodents are placed in plastic cages on top of a glass surface, and their hind paws are subjected to an infrared heat stimulus. One hind paw at a time is stimulated with the light source (noxious stimuli) until the animal retracts the paw from the glass surface because of the stimulus. Baseline withdrawal thresholds (latency) of both the right and left paws were recorded, and animals were assigned to different treatment groups so that each group had approximately equal withdrawal threshold averages in both paws. After baseline testing, treated animals received subcutaneous plantar injection (150 μl) of 50% CFA into the left hind paw, while control animals received a plantar injection (150 μl) of 0.9% NaCl into their left hind paw. CFA induces inflammation, resulting in a left hind paw that is hypersensitive to the thermal stimulus, while the right hind paw serves as a within-subject baseline for each animal. To obtain Hargreaves withdrawal latency recordings, each animal was placed in an individual plastic observation compartment on a glass platform, which provided access to the plantar surface of the hind paws from underneath. After acclimation to the environment for 30 min, thermal hypersensitivity was assessed by stimulating the mid-plantar area of each hind paw with a bright light source attached to the meter (Ugo Basile 37570) until animals withdrew the paw from the surface. The withdrawal threshold was defined as the average time (s) required for the rat to withdraw the stimulated paw. A brisk withdrawal of the paw (often followed by a sustained retraction and/or licking) was considered a positive response, but paw withdrawals due to locomotion or weight shifting were not counted. The Hargreaves studies were conducted with the plantar stimulation device that automatically registers the time (s) necessary to elicit paw withdrawal in order to eliminate bias in determining paw withdrawal thresholds. A cutoff of 20 s is pre-programmed so that the light source shuts off at that maximal period so as to not induce any burns on the plantar surface of the rodents. The Hargreaves test permits measurement of ipsilateral and contralateral heat thresholds, allowing each animal to serve as its own internal control in unilateral pain models. In addition, the Hargreaves test enables quantification of heat thresholds in unrestrained animals, reducing the likelihood of stress-induced responses.

CD-1 male mice [3] = conditions: for mortality by 72 hours: n=10
Protocol: CD-1 male mice obtained from Charles River Laboratories underwent a one-week acclimation period. They were housed under a 12-hour day/night cycle, with unrestricted access to food and water. Before experimentation, mice were fasted for 15 hours. […] Each treatment group consisted of 10 mice. Post-dosing, the mice were monitored at 6-hour intervals over 72 hours for signs of becoming moribund. An investigator blinded to the treatment groups conducted the moribund state assessment.

[4] = system: CD1 (young male and female) or C57BL/6 (aged male) mice; assay: Cold tail flick somatic pain assay; assay type: in vivo, mouse; conditions: for analgesia in cold tail-flick assay: 100 mg/kg, all cohorts; for tail withdrawal time (latency) to cold stimulation: 32 and 100 mg/kg PO, 4 °C water
Protocol: Half of the tail was immersed in ice-cold water maintained at 4° C. For the tail-flick assays, we used n=70 aged male mice, n=90 young male mice, and n=120 young female mice. Based on the availability of mice at the time of the experiments, different numbers of animals were assigned in different cohorts of experimental animals. Tail flick assay experiments were conducted on an open bench in a dedicated room at the LSUHSC New Orleans Neuroscience Center of Excellence vivarium. Mice were allowed to acclimate to the laboratory environment for 1 h prior to testing. To restrain the mice for the test, disposable plastic 50 mL screw-capped conical centrifuge tubes were cut at the tip to create a 0.5 cm opening to allow the mice to breathe freely. Another 0.5 cm opening was cut into the cap to allow access of the tail to the water bath. A 500 mL glass beaker was filled with 450 mL of ice-cold distilled water maintained at 4° C. with the addition of ice and determined with a glass thermometer. Mice were held over the opening of the water bath, and their tails submerged approximately halfway into the water. The nociceptive threshold was taken as the latency until the mice flicked their tail tip or removed the tail. The time from immersion to the attempted tail tip removal was measured to 1/10th of a sec with a digital laboratory timer. To minimize damage to the tail, a 60-sec cut-off was utilized. […] Injections were at doses of 32 mg/kg and 100 mg/kg. 30 min post-drug administration tail-flick/withdrawal latency was measured.

[5] = young male and young female rats
[6] = 992 oral gavage (ApAP 150 mg/kg, SRP-001 402 mg/kg)

SMILES | analgesia in acetic acid-induced writhing assay [1] | antinociception in acetic acid writhing [1] | equimolar (μmol/kg) ED50 / dose-response curve relative to ApAP ([1]; acetic acid writhing) | antipyresis (CD-1 male mice [2]) | analgesia, paw withdrawal latencies (Sprague-Dawley rats; aged male rats) | antinociception in Hargreaves assay (Sprague-Dawley rats; young female and male rats and aged male rats) | analgesia, paw withdrawal latencies (Sprague-Dawley rats; [5]) | mortality by 72 hours (CD-1 male mice [3]; [6]) | analgesia in cold tail-flick assay [4] | tail withdrawal time (latency) to cold stimulation [4] | equimolar (μmol/kg) ED50 / dose-response curve relative to ApAP ([4]; tail flick) | mortality by 72 hours (CD-1 male mice [3]; 1,984 oral gavage (ApAP 300 mg/kg)) | mortality by 72 hours (CD-1 male mice [3]; 3,969 oral gavage (ApAP 600 mg/kg)) | mortality reached within 72 hours (Kaplan-Meier) (CD-1 male mice [3]; highest dose) [%]
CCN(CC)C(=O)c1ccccc1S(=O)(=O)NCC(=O)Nc1ccc(O)cc1 [SRP-001, N,N-diethyl-2-[[2-(4-hydroxyanilino)-2-oxo-ethyl]sulfamoyl]benzamide] | significant analgesia | experienced antinociception | comparable or improved ED50; also recorded: shifted to the left; also recorded: clear shift to the left | comparable antipyresis | significant analgesia | Antinociception was also confirmed | significant analgesia | absence of mortality | significant analgesia | increased tail withdrawal time (latency) | comparable or improved ED50; also recorded: clear shift to the left |  |  | 
CC(=O)Nc1ccc(O)cc1 [ApAP, acetaminophen] | significant analgesia | experienced antinociception |  | comparable antipyresis | significant analgesia |  | significant analgesia | absence of mortality | significant analgesia | increased tail withdrawal time (latency) |  | 1/10 | 3/10 | 70
